# Bridge positions count the residues as written; N and C are the ends. Ends that are not written are not given here.
# What was measured:
# [1] = UV/vis titration of MBP in complex with NCR247_1–4,2–3 with heme; conditions: peptide versus MBP
# Procedure: (§20) UV/vis titration experiments of peptides and proteins with heme.
# (§21) Maltose-binding protein (Rockland Inc. Pennsylvania, USA) (10 µM) was preincubated with heme in different concentrations (4 - 40
# (§22) µM) for 30 min in HEPES buffer (pH 7.0) prior to the UV/vis spectroscopic analysis. Subsequently, absorbance spectra were recorded
# and analysed analogously to the heme-binding studies with the peptides described above.[2] Similar to the aforementioned approach,
# NCR247 was added and measured spectroscopically. In addition to this, 10 µM NCR247_1-4,2-3 was incubated with increasing
# MBP-NCR247_1-4,2-3 [2] = experiment: UV/vis spectroscopic titration of preformed MBP (10 uM) plus NCR247_1-4,2-3 (10 uM) with heme (4-45 uM), 30 min incubation, evaluated with a model of two heme molecules per complex.; conditions: read-out: KD value, two heme molecules binding to the MBP-NCR247_1-4,2-3 complex
# Procedure: (§1) Peroxidase-like activity of the heme-peptide complexes.
# (§2) 10 μl of the heme-peptide complex (final concentration:
# (§3) (100%) and evaluated as the average of triplicate measurements.
# (§4) Subsequently, absorbance spectra were recorded
# (§5) Similar to the aforementioned approach,
# (§6) NCR247 was added and measured spectroscopically.
# (§7) Resonance Raman spectroscopy of the heme-peptide complexes.
# (§8) -60°C (ANDOR, Ireland, 1024x127 pixels) used for detection.
# (§9) were combined in an equimolar ratio.
# (§10) The raw Raman spectra were
# (§11) visualised using the graphing software OriginPro 2016G Sr2.
# (§12) clipping (SNIP) algorithm, and vector normalisation.
# (§13) Circular Dichroism (CD) spectroscopy with NCR247-derived peptides.
# (§14) All the peptide solutions were prepared
# (§15) prediction tool. […] The structure
# MBP = target: T1, MBP (Escherichia coli, UniProt P0AEX9); experiment: UV/vis spectroscopic titration of MBP (10 uM) with heme (4-40 uM) in HEPES pH 7.0 after 30 min incubation, 1:1 model, Soret band near 400 nm.; format: binding; conditions: read-out: KD value, stoichiometry 1:1 (MBP:heme)
# T1 construct: gene malE; commercial (Rockland Inc.)
# Procedure: We thus conducted UV/vis measurements[36, 41] by titrating increasing concentrations of heme (4–40 μM) to the protein (10 μM).
# as §20, §21, §22
# and analysed analogously to the heme-binding studies with the peptides described above.[2]
# NCR247_1-2,3-4 = target: T2, NCR247_1-2,3-4; experiment: UV/vis difference-spectroscopic titration of peptide (10 or 20 uM) with heme (0.4-40 uM) in 100 mM HEPES pH 7.0 after 30 min incubation at room temperature, one binding site.
# T2 construct: synthetic 24mer, oxidized isomer, disulfides Cys4-Cys10 and Cys15-Cys21
# Procedure: (§16) Heme binding to the NCR247 parent peptide and its analogues was assessed using UV/vis spectroscopy (Table S2) following an earlier established experimental set‐up,[27, 30, 31, 32] with heme (0.4 to 40 μM) titrated to NCR247 peptide (20 μM) in 100 mM HEPES buffer (pH 7.0). […] The KD value for this peptide was first determined by adjusting the established protocol[30] to 1 min incubation time, while at an incubation time of 30 min concomitant oxidation of the cysteine residues has taken place as indicated by the fact that a stable complex was formed only in the first minutes and then a change in the spectrum occurred which is due to disulfide bond formation changing the heme‐binding behaviour of the peptide.
# (§17) Figure 4 Heme‐binding analysis of NCR247 peptides. UV/vis spectroscopic analysis upon addition of increasing concentrations of heme (0.4–40 μM) to NCR247 oxidized isomers (on the left), in silico docking analysis (in the middle) showing residues involved in heme binding and rRaman spectra of heme‐peptide (1 : 1) complex (on the right). a, NCR247_1–3,2–4. b, NCR247_1–2,3–4. c, NCR247_reduced form, with free Cys residues. The complex formation was analysed after incubating it for 30 min at room temperature. The change in the spectral behaviour when measured after 1 min and 30 min of complex incubation is noteworthy. The intensity of the bands at λ =364 nm, indicate a change in the peptide and can be attributed to concomitant oxidation of free Cys residues in aqueous buffer systems, making the Soret band at λ =428 nm more prominent, similar to the one observed in case of the oxidized isomers. d, Peroxidase‐like activity assay of heme‐NCR247 complex measured using an oxidative conversion of TMB substrate at 652 nm. […]
# (§18) Under oxidative reaction conditions, the cysteines were deprotected and folded by formation of the disulfide bridges between the cysteines according to protocols reported earlier.[4,5] […]
# NCR247_1-4,2-3 = target: T3, NCR247_1-4,2-3; experiment: as above
# T3 construct: synthetic 24mer, oxidized isomer, disulfides Cys4-Cys21 and Cys10-Cys15
# Procedure: as §16, §17, §18
# NCR247_1-3,2-4 = target: T4, NCR247_1-3,2-4; experiment: as above
# T4 construct: synthetic 24mer, oxidized isomer, disulfides Cys4-Cys15 and Cys10-Cys21
# Procedure: as §16, §17, §18
# NCR247_reduced [3] = experiment: UV/vis difference-spectroscopic titration of peptide (10 or 20 uM) with heme (0.4-40 uM) in 100 mM HEPES pH 7.0 after 1 min incubation, evaluated near 428 nm for one binding site.
# Procedure: as §16, with “peptide. […]” for “peptide.”
# (§19) Heme binding to the NCR247-derived peptides (Fig. 1, Table S1) was investigated by UV/vis spectroscopy, as described earlier.[2,3,7– 9] […] Absorbance spectra were recorded on a Multiskan GO spectrophotometer (ThermoScientific, Dreieich, Germany) in the range of 300 - 600 nm. Difference spectra were generated by subtracting the spectra of heme and peptide alone from the absorbance spectrum of the hemin-peptide complex. Dissociation constants (KD) were determined by using GraphPad Prism 10.0.2 and the earlier established equation from Pîrnău and Bogdan, as described elsewhere.[7,10]
# NCR247_reduced [4] = experiment: UV/vis difference-spectroscopic titration of peptide (10 or 20 uM) with heme (0.4-40 uM) in 100 mM HEPES pH 7.0 after 30 min incubation at room temperature, one binding site.
# Procedure: Heme binding to the NCR247 parent peptide and its analogues was assessed using UV/vis spectroscopy (Table S2) following an earlier established experimental set‐up,[27, 30, 31, 32] with heme (0.4 to 40 μM) titrated to NCR247 peptide (20 μM) in 100 mM HEPES buffer (pH 7.0). […] time, while at an incubation time of 30 min concomitant oxidation of the cysteine residues has taken place as indicated by the fact that a stable complex was formed only in the first minutes and then a change in the spectrum occurred which is due to disulfide bond formation changing the heme‐binding behaviour of the peptide.
# Figure 4 Heme‐binding analysis of NCR247 peptides. […] The complex formation was analysed after incubating it for 30 min at room temperature. The change in the spectral behaviour when measured after 1 min and 30 min of complex incubation is noteworthy. The intensity of the bands at λ =364 nm, indicate a change in the peptide and can be attributed to concomitant oxidation of free Cys residues in aqueous buffer systems, making the Soret band at λ =428 nm more prominent, similar to the one observed in case of the oxidized isomers. d, Peroxidase‐like activity assay of heme‐NCR247 complex measured using an oxidative conversion of TMB substrate at 652 nm. […]
# MBP-NCR247_1-4,2-3 [5] = experiment: UV/vis spectroscopic titration of preformed MBP (10 uM) plus NCR247_1-4,2-3 (10 uM) with heme (4-45 uM), 30 min incubation, evaluated near 420 nm with a 1:1 model.; format: binding; conditions: read-out: KD value, stoichiometry 1:1 (MBP-NCR247_1-4,2-3:heme)
# Procedure: as §1, §2, §3, §4, §5, §6, §7, §8, §9, §10, §11, §12, §13, §14, §15
# [6] = UV/vis spectroscopy heme binding to NCR247-derived peptides; conditions: 30 min incubation; Soret λ ~420 nm (oxidized isomers) or ~428 nm (reduced); n=1; peptide 20 μM, heme 0.4-40 μM, 100 mM HEPES pH 7.0
# Procedure: as §16, with “peptide. […]” for “peptide.”
# as §19
# [7] = design: method as in earlier work; conditions: ref 11 (Sankari et al.); cited from earlier work
compound,measurement,setting,value
"NCR247_1–4,2–3: RNGCIVDPRCPYQQCRRPLYCRRR, isomer with bridges Cys4‐Cys21 and Cys10‐Cys15 (disulfide 10-15, 4-21)",binding affinity of the peptide compared to the protein (MBP),[1],two‐fold higher
"C=CC1=C(C)c2cc3[nH]c(cc4nc(cc5[nH]c(cc1n2)c(C)c5CCC(=O)O)C(CCC(=O)O)=C4C)c(C)c3C=C.[Fe+3] [heme, Fe(III) protoporphyrin IX (Fe(III)PPIX, hemin)]",Kd,"MBP-NCR247_1-4,2-3 [2]",7600 nM
same,Kd,MBP,7200 nM
same,Kd,"NCR247_1-2,3-4",2980 nM
same,Kd,"NCR247_1-4,2-3",2800 nM
same,Kd,"NCR247_1-3,2-4",2090 nM
same,Kd,NCR247_reduced [3],1.44 µM
same,Kd,NCR247_reduced [4],2270 nM
same,Kd,"MBP-NCR247_1-4,2-3 [5]",14900 nM
"NSR247: RNGSIVDPRSPYQQSRRPLYSRRR, mutant with all cysteine residues replaced with serine, negative control",KD heme binding,[6],n.b. and completely lost and absence of heme binding
same,heme-binding affinity,[7],μM range

# Reference: paper PMC11875561, “Molecular Insights into the Heme‐Binding Potential of Plant NCR247‐Derived Peptides” (Chembiochem, 2025)
